From article PMC10674160, “Synthesis and Preclinical Evaluation of Radiolabeled [^103Ru]BOLD-100” (Pharmaceutics, 2023)

Assays:
CT26 cells = experiment: MTT cytotoxicity assay, 96 h exposure; type: cell-based, murine; conditions: exposure time 96 h, mean ± SD
Description: (§1) The murine cancer cell line CT26 and the human cancer cell line HCT116 were both obtained from the American Type Culture Collection (ATCC). Both cell lines were grown as adherent monolayer cultures in 75 cm^2 culture flasks in RPMI 1640 medium (supplemented with 2 mM L-glutamine and 1% PenStrep, Gibco^TM) and 10% fetal bovine serum (FBS, Gibco^TM) at 37 °C under a humid atmosphere containing 5% CO2 and 95% air. For splitting, accutase® solution (Sigma Aldrich) was used.
(§2) Cell viability was determined by the colorimetric MTT assay. The cells were seeded in RPMI 1640 medium in a 96-well cell culture plate 24 h prior to treatment at a density of 1.5 × 10^3 (CT26) and 2 × 10^3 (HCT116) cells per well. A stock solution of compounds 3a and 3b was prepared in DMSO and then diluted with RPMI 1640 medium (maximum 0.5% v/v of DMSO per well). After serial dilutions, a 100 µL aliquot was added to each well ([…], 6.25, 3.13 µmol/L per well). […] Optical densities were measured at 490 nm with a Synergy^TM HTX Multi-Mode Reader (BioTek, Winooski, VT, USA), using a reference wavelength of 650 nm to correct for unspecific absorption. Concentration–effect curves were calculated relative to untreated controls. […]

HCT116 cells = experiment: MTT cytotoxicity assay, 96 h exposure; type: cell-based, human; conditions: exposure time 96 h, mean ± SD
Description: as §1, §2

[1] = parameters: method as in PMID 28848672; conditions: phase I clinical study; cited from earlier work

Compound	IC50 (CT26 cells)	IC50 (HCT116 cells)	maximum tolerated dose [1]
[Cl][Ru]([Cl])([Cl])[Cl].[Na+].c1ccc2[nH]ncc2c1.c1ccc2[nH]ncc2c1 [3b, [^103Ru]sodium trans-[tetrachloridobis(indazole)ruthenate(III)]]	173 ± 15.1 µM	94.7 ± 11.7 µM	
[Cl][Ru-]([Cl])([Cl])[Cl].[Na+].c1ccc2[nH]ncc2c1.c1ccc2[nH]ncc2c1 [3a, sodium trans-[tetrachloridobis(indazole)ruthenate(III)]]	188 ± 17.8 µM	99.4 ± 14.5 µM	625 mg/m^2
